From patent publication US20240100023A1, “Compositions and Methods For Treating Spinal Cord Injuries” (priority 2020, published 2024)

Legend:
[1] = system: Rat (SD); experiment: Radial arm maze - spatial memory; assay type: in vivo; details: for Minimum Effective Dose, radial arm maze - spatial memory: Rat (SD), IP
Procedure: Yet another animal model for evaluating ampakine drug activity employed herein is the well-known and widely accepted Radial Arm Maze model. CX717 was tested for its ability to improve the performance of aged rats in an eight-arm radial maze using a cross-over design study. This behavioral test uses a standard eight-arm radial maze wherein five arms were open and baited with food pellets for the first morning session. Each animal was allowed to consume the food rewards present in the open arms and was then returned to its home cage. Six hours later animals were returned to the maze, wherein all eight-arms were open, but only the three arms previously closed contained food rewards. Scoring was based on the number of correct choices before an incorrect choice (re-entering an arm that was visited during the morning acquisition session) was made and on the total number of incorrect choices made before all three of the still baited arms were visited. CX717 was tested at six doses (0.03, 0.1, 0.3, 1, 3 and 10 mg/kg in hydroxypropyl β-cyclodextran, i.p.), administered 30 min prior to the start of the morning acquisition session and no drug was given prior to the second trial six hours later.
For CX1739 male Sprague-Dawley rats were trained to perform the win shift assay on the radial arm maze for approximately 10 weeks prior to the study. On each day of training and testing, each rat completed one trial, split into a sample phase and a test phase. During the sample phase, the rat was placed on a 12-arm radial arm maze surrounded by visual cues. Food wells at the end of each arm were baited with sucrose pellets but access to three arms, selected randomly, was blocked with a clear plastic divider at the arm entrance. The rat was allowed 5 minutes to search the maze and collect the available food pellets before being removed from the maze. Fifteen minutes later the rat was returned to the maze for the test phase of the trial. During the test phase, the rat was allowed access to all 12 arms of the maze but only the arms that had been blocked previously were baited with sucrose pellets. […]

[2] = Phase 1 studies in healthy volunteers (safety, pharmacokinetics); assay type: in vivo, human
[3] = system: Rat (SD); experiment: Amphetamine-stimulated locomotion and rearing in rats; assay type: in vivo; details: for Minimum Effective Dose, amphetamine-stimulated locomotion and rearing: Rat (SD), PO
Procedure: Effects of exemplary low impact ampakines were also evaluated in mice for the ability to inhibit amphetamine-stimulated locomotor activity. Mice were placed in the locomotor chamber for 20 min to habituate, removed, injected with either vehicle or SCI recovery ampakine (CX717), and 5 min later injected with 2 mg/kg i.p. Amphetamine Mice were returned to the locomotor chamber 10 min later, and their activity measured for a further 15 min. In related studies, adult male CD1 mice or male Sprague-Dawley rats were acclimated in a test chamber for 20 minutes removed and dosed i.p. (mice) or orally (rats) with CX1739, vehicle, or a reference compound. Five (mice) or 10 (rats) were then injected with amphetamine (2 mg/kg, i.p.) or saline vehicle and were returned to the activity test chamber.

[4] = system: unanesthetized, freely moving rats; experiment: Diaphragm EMG and plethysmography in awake rats after C2Hx; assay type: in vivo, Rat
Procedure: Low dose ampakine treatment was evaluated in awake, freely moving subjects to determine whether this treatment would safely and effectively increase diaphragm activity impaired due to acute- or sub-acute cervical SCI. In a placebo-controlled experiment with freely-moving non-anesthetized rats, ventilation and metabolic rate (VCO2) were measured using whole body plethysmography and diaphragm EMG using in-dwelling muscle electrodes. Diaphragm electromyography (EMG) was recorded using chronic in-dwelling electrodes in unanesthetized, freely moving rats. A spinal hemilesion was induced at C2 (C2Hx), and rats were studied at 4- and 14-days post injury during quiet room air breathing and acute respiratory challenge accomplished by inspiring 10% O2, 7% CO2 gas mixture. At 4 and 14 days following C2 spinal hemisection injury (C2Hx), rats were given a single intravenous bolus of CX717 (5 mg/kg, n=8), CX1739 (5 mg/kg, n=8) or vehicle (2-hydroxypropyl-beta-cyclodextrin; HPCD; n=8) (FIG. 22). Hemisectional spinal surgery results in reduced diaphragm activity as measured by EMG and plethysmography (FIG. 23).

[5] = system: Monkey (Rhesus); experiment: Delayed match-to-sample test; assay type: in vivo, Rhesus macaque; details: for Minimum Effective Dose, delayed match-to-sample test: Monkey (Rhesus), PO
Procedure: Further elucidating the potent behavioral and cognitive effects of exemplary ampakines useful within the invention, additional studies using the well-known Monkey Delayed Match to Sample assay were conducted. CX1739 was evaluated using aged Rhesus macaque monkeys (18 to 33 years old), undertaking the delayed match-to-sample (DMTS) task. The stimuli included red, blue, or yellow rectangles. A trial was initiated by presentation of a sample rectangle composed of one of the three colors. The sample rectangle remained in view until the monkey touched within its borders to initiate a pre-programmed delay (retention) interval. Following the delay interval, two choice rectangles were presented, with one of the two choice colors being the color matching the stimulus and the other (incorrect) color as one of the two remaining colors. A correct (matching) choice was reinforced. Non-matching choices were neither reinforced nor punished. The duration for each delay interval was adjusted for each subject until three levels of group performance accuracy approximated zero delay (85-100% of trials answered correctly), short delay interval (75-84% correct), medium delay interval (65-74% correct), and long delay interval (55-64% correct). The inter-trial interval was 5 seconds and each session consisted of 96 trials.

[6] = 14 days post injury, baseline breathing, 5 mg/kg i.v.

O=C(c1ccc2nonc2c1)N1CCOCC1 [CX717, 1-(benzofurazan-5-ylcarbonyl)morpholine]
Minimum Effective Dose, radial arm maze - spatial memory [1]: 0.3 mg/kg
Half-life compared with CX516 ([2]; species not stated): significantly longer half-lives than CX516
Minimum Effective Dose, amphetamine-stimulated locomotion and rearing [3]: 1 mg/kg
Increase in tidal volume [4, 6]: ~20%
Increase of peak inspiratory ipsilateral diaphragm EMG activity [4, 6]: ~30%
Minimum Effective Dose, delayed match-to-sample test [5]: 0.8 mg/kg

CN(C(=O)c1ccc2nonc2c1)C1CCOCC1 [CX1739, N-Methyl-N-tetrahydro-2H-pyran-4-yl-[2,1,3]-benzoxadiazole-5-carboxamide]
Minimum Effective Dose, radial arm maze - spatial memory [1]: 0.3 mg/kg
Dose producing the maximal effect / optimal dose in the maze assays ([1]; ip): 0.3 mg/kg
Half-life compared with CX516 ([2]; human, in vivo): significantly longer half-lives than CX516
Minimum Effective Dose, amphetamine-stimulated locomotion and rearing [3]: 1 mg/kg
Amphetamine-stimulated rearing behavior in rats ([3]; rats, all doses tested): modest reduction
Increase in tidal volume ([4]; 4-day time point, 5 mg/kg intravenous bolus): 20%
Tidal volume during hypoxia-hypercapnia challenge ([4]; 10% O2, 7% CO2, follows the 4-day results): larger increase in tidal volume
Increase in tidal volume [4, 6]: no change in tidal volume
Increase of peak inspiratory ipsilateral diaphragm EMG activity [4, 6]: ~10%
Minimum Effective Dose, delayed match-to-sample test [5]: 0.3 mg/kg
Task accuracy with the Best Dose of each subject ([5]; sessions initiated 45 min after administration): statistically significant increase
